Reference: patent US7964636B2, “Synthesis and use of novel inhibitors and inactivators of protein arginine deiminases” (University of South Carolina, priority 2005, dated 2011)
Like-named read-outs stand apart in the source and are kept apart here.

Assays:
[1] = target: T1, PAD4 (Homo sapiens, UniProt Q9UM07); conditions: cited from earlier work
[2] = target: T1, PAD4; test: IC50 assays (Example 2); format: biochemical; conditions: for IC50: 10 mM BAEE; for inhibition at the highest concentration tested: 500 μM
[3] = target: T1, PAD4; test: Time course assays / inactivation kinetics (Example 2); format: biochemical; conditions: 2 mM BAEE
[4] = target: T1, PAD4; test: Time course inhibition assays (Example 1); conditions: 10 mM BAEE, 10 mM CaCl2
[5] = target: T1, PAD4; test: H3-amidine inhibition assays; format: biochemical; conditions: BAEE substrate; 0, 5, 10 mM H3-amidine; read-out: Kis (linear competitive inhibition)
Protocol: Initial rates were determined in the absence and presence of various amounts of H3-amidine (0, 5, 10 mM), using BAEE as the substrate. […] After incubation at 37° C. for 15 min, the reactions were quenched and the amount of Cit produced quantified. The initial rates derived from these experiments were fit by non-linear least fit squares to equations representing linear competitive inhibition (Equation 4) and linear noncompetitive inhibition (Equation 5), using the using the GraFit™ version 5.0.11 software package. v=Vm[S]/(Km(1+[I]/Kis)+[S]) (Eq. 4) v=Vm[S]I(Km(1+[I]/Kis)+[S](1+[I]/Kii)) (Eq. 5)
Kii represents Ki intercept and Kis represents Ki slope. Comparisons of the standard errors derived from fits of the data to Equations 4 and 5 are most consistent with H3-amidine being a competitive inhibitor.

[6] = target: T1, PAD4; test: Inhibition assays with compound 1 (mode of inhibition, BAEE substrate); format: biochemical; conditions: 0, 5, 10 mM compound 1, read-out: Kis (linear competitive inhibition)
[7] = target: T1, PAD4; test: IC50 assays of compounds 1, 2 and 3 (Example 1); conditions: pre-incubation with PAD4 and Ca2+ (10 mM) for 10 min; BAEE 1 mM final; 20 min
[8] = test system: PAD4; conditions: known PAD inhibitor; cited from earlier work
[9] = preincubation with PAD4 in 10 mM calcium for 15 min, read-out: IC50

T1 sequence (Q9UM07 whole entry): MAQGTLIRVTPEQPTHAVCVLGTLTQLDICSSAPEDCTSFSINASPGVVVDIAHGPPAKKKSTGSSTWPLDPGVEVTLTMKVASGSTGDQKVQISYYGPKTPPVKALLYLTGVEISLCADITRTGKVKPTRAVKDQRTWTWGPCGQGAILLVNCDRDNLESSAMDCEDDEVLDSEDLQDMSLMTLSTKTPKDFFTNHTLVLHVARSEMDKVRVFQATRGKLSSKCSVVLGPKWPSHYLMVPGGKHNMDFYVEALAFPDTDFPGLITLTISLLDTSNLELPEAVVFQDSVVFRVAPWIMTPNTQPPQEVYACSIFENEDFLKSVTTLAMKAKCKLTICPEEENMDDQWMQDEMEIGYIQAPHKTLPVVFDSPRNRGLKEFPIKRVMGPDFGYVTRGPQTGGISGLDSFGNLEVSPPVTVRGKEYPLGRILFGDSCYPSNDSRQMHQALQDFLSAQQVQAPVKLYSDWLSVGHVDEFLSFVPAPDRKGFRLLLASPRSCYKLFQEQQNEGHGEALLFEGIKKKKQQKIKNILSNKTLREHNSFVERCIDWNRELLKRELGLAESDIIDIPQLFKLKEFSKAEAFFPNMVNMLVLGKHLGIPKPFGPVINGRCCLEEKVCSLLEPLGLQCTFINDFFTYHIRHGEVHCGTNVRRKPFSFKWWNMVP

| SMILES | IC50 [2, 9] [µM] | time course of product formation [3] | further results |
| --- | --- | --- | --- |
| N=C(N)CCl [2-chloroacetamidine] |  |  | Ki [1]: 20000 µM; kinact/KI ([1]; reported by the Fast group): 0.583 M⁻¹ s⁻¹ |
| N=C(CCl)NCC[C@H](NC(=O)c1ccccc1)C(N)=O [Cl2-amidine, N-α-benzoyl-N^4-(2-chloro-1-iminoethyl)-L-Dab amide] | 585 ± 65 |  |  |
| NC(=O)[C@H](CCCNC(=O)CCl)NC(=O)c1ccccc1 [Cl3-acetamide, N-α-benzoyl-N^5-(2-chloroacetyl)-L-Orn amide] | > 500 |  | inhibition at the highest concentration tested [2]: no inhibition |
| NC(=O)[C@H](CCCNC(=O)CF)NC(=O)c1ccccc1 [F3-acetamide, N-α-benzoyl-N^5-(2-fluoroacetyl)-L-Orn amide] |  |  | inhibition at the highest concentration tested [2]: no inhibition; IC50 ([2]; IC50, preincubation with PAD4 in 10 mM calcium for 15 min): > 500 µM |
| N=C(CF)NCCC[C@H](NC(=O)c1ccccc1)C(N)=O [F3-amidine, N-α-benzoyl-N^5-(2-fluoro-1-iminoethyl)-L-ornithine amide] |  |  | time dependence of inhibition (progress curves) [4]: time dependent inhibition properties |
| CC(=N)NCC[C@H](NC(=O)c1ccccc1)C(N)=O [H2-amidine, N-α-benzoyl-N^4-(1-iminoethyl)-L-Dab amide] | > 1000 | linear with respect to time |  |
| CC(=N)NCCCC[C@H](NC(=O)c1ccccc1)C(N)=O [H4-amidine, N-α-benzoyl-N^6-(1-iminoethyl)-L-Lys amide] | > 1000 | linear with respect to time |  |
| CC(=N)NCCC[C@H](NC(=O)c1ccccc1)C(=O)O [H-Amidine, N-α-benzoyl-N^5-(1-iminoethyl)-L-ornithine] |  |  | time dependence of inhibition (progress curves) [4]: does not display time dependent inhibitory properties; Ki [6]: 1700 ± 200 µM; IC50 [7]: 4300 ± 700 µM |
| CC(=O)O[C@H]1C(=O)[C@@]2(C)[C@H]([C@H](OC(=O)c3ccccc3)[C@]3(O)C[C@H](OC(=O)[C@H](O)[C@@H](NC(=O)c4ccccc4)c4ccccc4)C(C)=C1C3(C)C)[C@]1(OC(C)=O)CO[C@@H]1C[C@@H]2O [taxol] |  |  | IC50 [8]: ~5000 µM |

Continued, in another order:

| IC50 [2, 9] [µM] | time course of product formation [3] | SMILES | further results |
| --- | --- | --- | --- |
| 640 ± 10 |  | N=C(CCl)NCCCC[C@H](NC(=O)c1ccccc1)C(N)=O [Cl4-amidine, N-α-benzoyl-N^6-(2-chloro-1-iminoethyl)-L-Lys amide] |  |
| > 1000 | linear with respect to time | N=C(CF)NCC[C@H](NC(=O)c1ccccc1)C(N)=O [F2-amidine, N-α-benzoyl-N^4-(2-fluoro-1-iminoethyl)-L-Dab amide] | observed activity ([2]; at 1000 μM): 93 % of control |
| 655 ± 100 |  | N=C(CF)NCCCC[C@H](NC(=O)c1ccccc1)C(N)=O [F4-amidine, N-α-benzoyl-N^6-(2-fluoro-1-iminoethyl)-L-Lys amide] |  |
| > 1000 | linear with respect to time | CC(=N)NCCC[C@H](NC(=O)c1ccccc1)C(N)=O [H3-amidine, N-α-benzoyl-N^5-(1-iminoethyl)-L-Orn amide] | Ki [5]: 3200 ± 900 µM |
